Measured values reported in ChEMBL document CHEMBL1153781, “Prediction of volume of distribution values in human using immobilized artificial membrane partitioning coefficients, the fraction of compound ionized and plasma protein binding data” (Eur J Med Chem, 2009).

Columns and labels:
clinical = conditions: human, in vivo
Plasma = conditions: human
[1] = Dissociation constant, pKa of the compound; type: physicochemical

Compound	Vd (clinical)	fu (Plasma)	pKa [1]
CC(=O)[C@@]1(O)CC[C@H]2[C@@H]3C[C@H](C)C4=CC(=O)CC[C@]4(C)[C@H]3CC[C@@]21C	4.66 L/kg	0.1	–
CCOC(=O)[C@H](CCc1ccccc1)N[C@@H](C)C(=O)N1CCC[C@H]1C(=O)O	1.7 L/kg	0.4	–
CC(=O)Nc1ccc(O)cc1 [ACETAMINOPHEN]	–	1	–
Nc1ncnc2c1ncn2CCOCP(=O)(O)O [ADEFOVIR]	–	0.895	1.3
CC(C)(C)NCC(O)c1ccc(O)c(CO)c1 (stereo not drawn) [ALBUTEROL]	–	0.93	–
CN(C)CCC=C1c2ccccc2CCc2ccccc21 [AMITRIPTYLINE]	–	0.06	–
CCC1(CCC(C)C)C(=O)NC(=O)NC1=O [AMOBARBITAL]	1.05 L/kg	–	–
CC1(C)S[C@@H]2[C@H](NC(=O)[C@H](N)c3ccc(O)cc3)C(=O)N2[C@H]1C(=O)O [AMOXICILLIN]	0.85 L/kg	0.82	2.4
Cc1cc(=O)n(-c2ccccc2)n1C [ANTIPYRINE]	–	0.87	–
CN1CCc2cccc3c2[C@H]1Cc1ccc(O)c(O)c1-3 [APOMORPHINE]	2 L/kg	0.5	–
CC(=O)Oc1ccccc1C(=O)O [ASPIRIN]	0.15 L/kg	0.3	–
CC(C)NCC(O)COc1ccc(CC(N)=O)cc1 (stereo not drawn) [ATENOLOL]	–	0.91	–
C[C@H]1[C@H](NC(=O)/C(=N\OC(C)(C)C(=O)O)c2csc(N)n2)C(=O)N1S(=O)(=O)O [AZTREONAM]	–	–	2.75
CCCCN1CCCCC1C(=O)Nc1c(C)cccc1C (stereo not drawn) [BUPIVACAINE]	0.7 L/kg	0.044	8.16
NC(=O)N1c2ccccc2C=Cc2ccccc21 [CARBAMAZEPINE]	1.4 L/kg	0.25	–
Cc1nnc(SCC2=C(C(=O)O)N3C(=O)[C@@H](NC(=O)Cn4cnnn4)[C@H]3SC2)s1 [CEFAZOLIN]	–	–	2.1
C=CC1=C(C(=O)O)N2C(=O)[C@@H](NC(=O)/C(=N\OCC(=O)O)c3csc(N)n3)[C@H]2SC1 [CEFIXIME]	–	0.33	2.1
CCN1CCN(C(=O)N[C@@H](C(=O)N[C@@H]2C(=O)N3C(C(=O)O)=C(CSc4nnnn4C)CS[C@H]23)c2ccc(O)cc2)C(=O)C1=O [CEFOPERAZONE]	–	–	2.6
CO/N=C(\C(=O)N[C@@H]1C(=O)N2C(C(=O)O)=C(COC(C)=O)CS[C@H]12)c1csc(N)n1 [CEFOTAXIME]	0.28 L/kg	0.6	3.75
CO/N=C(\C(=O)N[C@@H]1C(=O)N2C(C(=O)O)=C(CSc3nc(=O)c(=O)[nH]n3C)CS[C@H]12)c1csc(N)n1 [CEFTRIAXONE]	–	0.075	2.7
O=C(O)CCCc1ccc(N(CCCl)CCCl)cc1 [CHLORAMBUCIL]	0.29 L/kg	–	–
O=C(N[C@H](CO)[C@H](O)c1ccc([N+](=O)[O-])cc1)C(Cl)Cl [CHLORAMPHENICOL]	–	0.47	–
CN(C)CCC(c1ccc(Cl)cc1)c1ccccn1 (stereo not drawn) [CHLORPHENIRAMINE]	–	0.3	–
CN/C(=N/CCSCc1nc[nH]c1C)NC#N [CIMETIDINE]	–	0.81	–
Clc1cccc(Cl)c1N=C1NCCN1 [CLONIDINE]	–	0.8	–
COc1ccc2c3c1O[C@H]1[C@@H](O)C=C[C@H]4[C@@H](C2)N(C)CC[C@@]341 [CODEINE]	–	0.93	–

Compound	Vd (clinical)	fu (Plasma)	pKa [1]
CN1C(=O)CN=C(c2ccccc2)c2cc(Cl)ccc21 [DIAZEPAM]	–	0.02	–
O=C(O)Cc1ccccc1Nc1c(Cl)cccc1Cl [DICLOFENAC]	–	0.01	–
C[C@H]1O[C@@H](O[C@H]2[C@@H](O)C[C@H](O[C@H]3[C@@H](O)C[C@H](O[C@H]4CC[C@@]5(C)[C@H](CC[C@@H]6[C@@H]5C[C@@H](O)[C@]5(C)[C@@H](C7=CC(=O)OC7)CC[C@]65O)C4)O[C@@H]3C)O[C@@H]2C)C[C@H](O)[C@@H]1O [DIGOXIN]	3.12 L/kg	–	–
CN(C)CCC=C1c2ccccc2COc2ccccc21 [DOXEPIN]	11.7 L/kg	0.17	–
Cn1c(=O)c2c(ncn2CC(O)CO)n(C)c1=O (stereo not drawn) [DYPHYLLINE]	0.8 L/kg	0.6	–
C[C@]12CC[C@@H]3c4ccc(O)cc4CC[C@H]3[C@@H]1CC[C@@H]2O [ESTRADIOL]	–	0.015	–
NC(N)=Nc1nc(CSCCC(N)=NS(N)(=O)=O)cs1 [FAMOTIDINE]	–	0.83	–
CC(C(=O)O)c1ccc(-c2ccccc2)c(F)c1 (stereo not drawn) [FLURBIPROFEN]	0.12 L/kg	0.01	–
NS(=O)(=O)c1cc(C(=O)O)c(NCc2ccco2)cc1Cl [FUROSEMIDE]	–	0.03	–
COc1c(N2CCNC(C)C2)c(F)cc2c(=O)c(C(=O)O)cn(C3CC3)c12 (stereo not drawn) [GATIFLOXACIN]	1.75 L/kg	–	6
COc1ccc(Cl)cc1C(=O)NCCc1ccc(S(=O)(=O)NC(=O)NC2CCCCC2)cc1 [GLYBURIDE]	0.14 L/kg	0.01	–
COC1=CC(=O)C[C@@H](C)[C@]12Oc1c(Cl)c(OC)cc(OC)c1C2=O [GRISEOFULVIN]	1.5 L/kg	0.16	–
NS(=O)(=O)c1cc2c(cc1Cl)NCNS2(=O)=O [HYDROCHLOROTHIAZIDE]	0.83 L/kg	0.6	–
C[C@]12CCC(=O)C=C1CC[C@@H]1[C@@H]2[C@@H](O)C[C@@]2(C)[C@H]1CC[C@]2(O)C(=O)CO [HYDROCORTISONE]	–	0.09	–
COc1ccc2c(c1)c(CC(=O)O)c(C)n2C(=O)c1ccc(Cl)cc1 [INDOMETHACIN]	0.1 L/kg	0.1	–
NNC(=O)c1ccncc1 [ISONIAZID]	0.67 L/kg	1	–
CC(C(=O)O)c1cccc(C(=O)c2ccccc2)c1 (stereo not drawn) [KETOPROFEN]	0.15 L/kg	–	–
Cc1c(OCC(F)(F)F)ccnc1C[S+]([O-])c1nc2ccccc2[nH]1 (stereo not drawn) [LANSOPRAZOLE]	0.35 L/kg	0.03	–
C[C@H]1COc2c(N3CCN(C)CC3)c(F)cc3c(=O)c(C(=O)O)cn1c23.C[C@H]1COc2c(N3CCN(C)CC3)c(F)cc3c(=O)c(C(=O)O)cn1c23.O [LEVOFLOXACIN]	1.36 L/kg	0.69	–
CCC[C@@H]1C[C@@H](C(=O)N[C@@H]([C@H]2O[C@H](SC)[C@H](O)[C@@H](O)[C@H]2O)[C@@H](C)O)N(C)C1 [LINCOMYCIN]	1.3 L/kg	0.28	–
Cc1cnc(NC(=O)C2=C(O)c3ccccc3S(=O)(=O)N2C)s1 [MELOXICAM]	–	0.006	–
CCOC(=O)C1(c2ccccc2)CCN(C)CC1 [MEPERIDINE]	–	0.42	10.5
CN(C)C(=N)N=C(N)N [METFORMIN]	2.45 L/kg	–	–
Cc1ccccc1N1C(=O)c2cc(S(N)(=O)=O)c(Cl)cc2NC1C (stereo not drawn) [METOLAZONE]	1.61 L/kg	–	9.72
CN1CC[C@]23c4c5ccc(O)c4O[C@H]2[C@@H](O)C=C[C@H]3[C@H]1C5 [MORPHINE]	–	0.61	–
COc1ccc2cc([C@H](C)C(=O)O)ccc2c1 [NAPROXEN]	–	0.01	–

Compound	Vd (clinical)	fu (Plasma)	pKa [1]
COC(=O)C1=C(C)NC(C)=C(C(=O)OCCN(C)Cc2ccccc2)C1c1cccc([N+](=O)[O-])c1 (stereo not drawn) [NICARDIPINE]	0.98 L/kg	0.05	–
COCCOC(=O)C1=C(C)NC(C)=C(C(=O)OC(C)C)C1c1cccc([N+](=O)[O-])c1 (stereo not drawn) [NIMODIPINE]	1.5 L/kg	0.05	–
CC1(C)S[C@@H]2[C@H](NC(=O)Cc3ccccc3)C(=O)N2[C@H]1C(=O)O [PENICILLIN G]	–	0.425	–
CCC1(c2ccccc2)C(=O)NC(=O)NC1=O [PHENOBARBITAL]	0.63 L/kg	0.5	–
O=C1NC(=O)C(c2ccccc2)(c2ccccc2)N1 [PHENYTOIN]	0.64 L/kg	0.1	–
CN1C(C(=O)Nc2ccccn2)=C(O)c2ccccc2S1(=O)=O [PIROXICAM]	0.14 L/kg	0.01	–
CC[C@H](C)C(=O)O[C@H]1C[C@H](O)C=C2C=C[C@H](C)[C@H](CC[C@@H](O)C[C@@H](O)CC(=O)O)[C@H]21 [PRAVASTATIN]	–	0.55	4.7
C[C@]12C=CC(=O)C=C1CC[C@@H]1[C@@H]2[C@@H](O)C[C@@]2(C)[C@H]1CC[C@]2(O)C(=O)CO [PREDNISOLONE]	–	0.075	–
C[C@]12C=CC(=O)C=C1CC[C@@H]1[C@@H]2C(=O)C[C@@]2(C)[C@H]1CC[C@]2(O)C(=O)CO [PREDNISONE]	–	0.25	–
CCCNC(C)C(=O)Nc1ccccc1C (stereo not drawn) [PRILOCAINE]	–	0.715	7.9
CC(CN1c2ccccc2Sc2ccccc21)N(C)C (stereo not drawn) [PROMETHAZINE]	–	0.07	–
CCCNCC(O)COc1ccccc1C(=O)CCc1ccccc1 (stereo not drawn) [PROPAFENONE]	–	0.05	–
CC(C)NCC(O)COc1cccc2ccccc12 (stereo not drawn) [PROPRANOLOL]	–	0.1	–
CN[C@@H](C)[C@@H](O)c1ccccc1 [PSEUDOEPHEDRINE]	2.84 L/kg	1	–
NC(=O)c1cnccn1 [PYRAZINAMIDE]	0.7 L/kg	0.9	–
CCCN1CCCC[C@H]1C(=O)Nc1c(C)cccc1C [ROPIVACAINE]	0.55 L/kg	0.06	–
O=C(O)c1ccccc1O [SALICYLIC ACID]	0.17 L/kg	0.05	–
CCC(C)(C)C(=O)O[C@H]1C[C@@H](C)C=C2C=C[C@H](C)[C@H](CC[C@@H]3C[C@@H](O)CC(=O)O3)[C@H]21 [SIMVASTATIN]	0.98 L/kg	–	–
Nc1ccc(S(=O)(=O)Nc2ncccn2)cc1 [SULFADIAZINE]	0.92 L/kg	0.55	–
CCN1CCCC1CNC(=O)c1cc(S(N)(=O)=O)ccc1OC (stereo not drawn) [SULPIRIDE]	2.5 L/kg	0.6	–
CCS(=O)(=O)CCn1c([N+](=O)[O-])cnc1C [TINIDAZOLE]	0.7 L/kg	0.88	–
CCCCNC(=O)NS(=O)(=O)c1ccc(C)cc1 [TOLBUTAMIDE]	0.14 L/kg	–	–
COc1cccc(C2(O)CCCCC2CN(C)C)c1 (stereo not drawn) [TRAMADOL]	–	0.96	8.3
C[C@]12C=CC(=O)C=C1CC[C@H]1[C@@H]3C[C@@H](O)[C@](O)(C(=O)CO)[C@@]3(C)C[C@H](O)[C@@]12F [TRIAMCINOLONE]	1.76 L/kg	0.32	–
COc1cc(Cc2cnc(N)nc2N)cc(OC)c1OC [TRIMETHOPRIM]	–	0.63	–
CC(=O)CC(c1ccccc1)c1c(O)c2ccccc2oc1=O (stereo not drawn) [WARFARIN]	0.14 L/kg	0.01	–
